According to publication PMC4627230, “Identification of TAX2 peptide as a new unpredicted anti-cancer agent” (Oncotarget, 2015):
Entries after “also recorded” stand apart in the source; their conditions may differ.

What was measured:
TSP-1 = assay: Surface plasmon resonance; type: binding; conditions: data not shown
[1] = tested on: cGMP production by endothelial cells (HUVECs); assay: Intracellular cGMP after NO stimulation; type: cell-based, human; conditions: 100 μM for 15 min, then 10 μM DEA-NONOate 10 min, 1 mM IBMX, n = 3 in triplicate, p < 0.05
Description: HUVECs (1 × 10^4 per well) were grown over 24 h in 96-well plates containing EGM-2 full growth medium and then serum-starved in EBM-2 containing 0.1% (v/v) BSA over additional 24 h. Cells were then pre-treated during 15 min with 100 μM TAX2 in EBM-2 without additives plus 0.1% (v/v) BSA before treatment with NO donor in presence of 1 mM IBMX as a phosphodiesterases inhibitor. After 10 min, intracellular cGMP levels were determined according to the manufacturer's instructions using an enzyme immunoassay kit (Amersham Biosciences).
Supplementary Figure S2: TAX2 inhibits intracellular cGMP production by endothelial cells under NO stimulation. HUVECs (1 × 10^4 per well) were seeded in 96-well plates, maintained in EGM-2 growth medium for 24 h, and then serum-starved for an additional 24 h in EBM-2 containing 0.1% (v/v) BSA. Endothelial cells were then pre-treated with 100 μM TAX2 for 15 min before addition of 10 μM DEA-NONOate. After 10 min, intracellular cGMP was quantified as described in Material & Methods. Results are expressed as percent compared to control (n = 3, each performed in triplicate; t test; * p < 0.05).
(also on this page, place not known: www.impactjournals.com/oncotarget/ Oncotarget, Materials 2015 Supplementary *p) […]

C57BL/6 mice = assay: Tolerability in melanoma-bearing mice (μCT of healthy organs, dissection); type: in vivo, mouse; conditions: 10 mg/kg i.p. days 3, 5, 7, dissections, data not shown
Description: For the subcutaneous melanoma tumor model, suspensions of B16F1 cells (2.5 × 10^5 cells in 100 μL RPMI-1640 medium) were subcutaneously injected into the left flank of different randomized series of syngeneic C57BL/6 mice (n = 8–10 per group), as previously described. Intraperitoneal administrations of peptide (10 mg/kg mouse weight) or controls (physiological serum 0.9% (w/v) NaCl or a scrambled peptide) were performed at days 3, 5 and 7. In human pancreatic carcinoma xenograft experiments, 3 × 10^6 MIA PaCa-2 cells/mouse were implanted subcutaneously into the left flank of BALB/C athymic nude mice, then TAX2 intraperitoneal treatments (10 mg/kg mouse weight) were performed 3 times a week during 4 weeks starting at day 10 after tumor cells inoculation. Tumor volume was determined according to v = 0.5 A × B^2, where A denotes the largest dimension of the tumor and B represents the smallest dimension. […]
Animals were anesthetized by isoflurane (Forene, Abbott France, Rungis, France) inhalation (3% for induction and 1–1.5% for maintenance) and then after placed in a carbon fibers bed. […] Analysis of reconstructed images and quantification of the vascular network were performed using Amira 5.4.3 software.

[2] = tested on: tumor vasculature of MIA PaCa-2 xenograft in BALB/C nu/nu mice; assay: MIA PaCa-2 xenograft vascularization (μCT, dissection); type: in vivo, human tumor xenograft in mouse; conditions: 10 mg/kg i.p. 3 times a week for 4 weeks
Description: (§1) For the subcutaneous melanoma tumor model, suspensions of B16F1 cells (2.5 × 10^5 cells in 100 μL RPMI-1640 medium) were subcutaneously injected into the left flank of different randomized series of syngeneic C57BL/6 mice (n = 8–10 per group), as previously described. Intraperitoneal administrations of peptide (10 mg/kg mouse weight) or controls (physiological serum 0.9% (w/v) NaCl or a scrambled peptide) were performed at days 3, 5 and 7. In human pancreatic carcinoma xenograft experiments, 3 × 10^6 MIA PaCa-2 cells/mouse were implanted subcutaneously into the left flank of BALB/C athymic nude mice, then TAX2 intraperitoneal treatments (10 mg/kg mouse weight) were performed 3 times a week during 4 weeks starting at day 10 after tumor cells inoculation. Tumor volume was determined according to v = 0.5 A × B^2, where A denotes the largest dimension of the tumor and B represents the smallest dimension. At days indicated, mice were sacrificed and tumors were surgically extracted and fixed in 4% paraformaldehyde for further morphologic studies and for magnetic resonance imaging, or frozen for immunohistochemistry. Mice were also weighed every 2–3 days and daily checked for any modification in their behavior. Loss of 15% body weight was an indication for euthanasia as well as severe tumor necrosis, as it was sometimes associated with skin ulceration that would result in loss of body fluid and/or infection.
Animals were anesthetized by isoflurane (Forene, Abbott France, Rungis, France) inhalation (3% for induction and 1–1.5% for maintenance) and then after placed in a carbon fibers bed. CT images were acquired on a dedicated small animal μCT scanner (Skyscan 1076, Bruker, Kontich, Belgium) while continuously rotating the camera by 180° with the following parameters: 50 kV, 0.5 mm Al filter, 200 μA source current, 35 μm isotropic resolution, 180 ms exposure time, 4 projection images per 0.7° rotation step and a retrospective synchronization. […] Analysis of reconstructed images and quantification of the vascular network were performed using Amira 5.4.3 software.

BALB/C nu/nu mice = assay: Tolerability in xenograft-bearing mice; type: in vivo, mouse
Description: as §1, with “Loss of 15% body weight was an indication for euthanasia as well as severe tumor necrosis, as it was sometimes associated with skin ulceration that would result in loss of body fluid and/or infection.” left out

[3] = tested on: lung metastasis of invasive B16F10 melanoma cells; assay: Experimental lung metastasis; type: in vivo; conditions: data not shown

**Q.** How did the “binding to TSP-1 by surface plasmon resonance” value (TSP-1) turn out when “CEVSQLLKGDAC (disulfide) [TAX2, CD47-derived cyclic disulfide dodecapeptide …]” was run?
**A.** confirmed

**Q.** And the “decrease of cGMP production after NO stimulation” value [1]?
**A.** around 25%

**Q.** And the “thrombosis, hemorrhage or embolism in melanoma-bearing mice” value (C57BL/6 mice)?
**A.** neither μCT imaging of healthy organs nor mice dissections highlighted any sign of thrombosis, hemorrhage or embolism; also recorded: no signs of thrombosis, hemorrhage or embolism were observed in healthy organs

**Q.** And the “tumor vasculature in dissections, day 38” value [2]?
**A.** decreased tumor vasculature

**Q.** And the “tumor-associated vascular network in 3D reconstruction, day 38” value [2]?
**A.** strongly inhibit tumor-associated vascular network

**Q.** What about the “tumor vascularization until day 38” value ([2]; μCT, representative of n = 5) of the same sequence?
**A.** striking alteration of tumor vascularization

**Q.** And the “clinical sign or weight loss” value (BALB/C nu/nu mice; 10 mg/kg i.p. 3 times a week for 4 weeks)?
**A.** mice did not exhibit any other clinical sign or weight loss

**Q.** What about the “thrombosis, hemorrhage or embolism in xenograft-bearing mice” value (BALB/C nu/nu mice; healthy organs, human pancreatic carcinoma model) of the same sequence?
**A.** no signs of thrombosis, hemorrhage or embolism were observed in healthy organs

**Q.** And the lung metastasis formation [3]?
**A.** did not increase metastasis formation
